Laboratory results: patent US11505534B2, “Highly diastereoselective construction of the 4,5-spirocycle via palladium-catalyzed intramolecular alkenylation” (The University of Chicago, priority 2017, dated 2022)

Legend:
[1] = system: interleukin-2 (IL-2) production in a B cell lymphoma cell line; experiment: suppression of interleukin-2 (IL-2) production in a B cell lymphoma cell line; type: cell-based; settings: 100 micromolar (μM) concentrations of the compounds, preliminary biological testing
Text: In some embodiments, the presently disclosed subject matter provides phainanoid analogs, as well as compounds that can be used as synthetic intermediates in preparing phainanoids and phainanoid analogs. In particular, the presently disclosed phainanoid analogs include the benzofuran-based 4,5-spirocycle with the strained exocyclic olefin motif present in the “western” part of the natural product phainanoids. Given the inclusion of this motif, it is believed that the presently disclosed phainanoid analogs can be useful as novel immunosuppressive agents, e.g., for the treatment of diseases characterized by an aberrant immune response, such as autoimmune and/or inflammatory diseases, as well as during transplant operations.

SMILES | immunosuppressive activity (suppression of interleukin-2 (IL-2) production) [1] | melting point
C[C@@]12CCCC=C1[C@@]1(C2)Oc2ccccc2C1=O [Compound 7] | complete suppression | –
C[C@]12C[C@@]3(Oc4ccccc4C3=O)C1=CC[C@]1(C)c3ccccc3CC[C@@H]21 [Compound 8] | complete suppression | 174 to 177 °C
C[C@]1(/C=C2\Oc3ccccc3C2=O)[C@@H](O)CC[C@]2(C)c3ccccc3CC[C@@H]12 [Compound 25] | complete suppression | –
